Key:
Experiment in all cases: Cell proliferation assay (Alamar Blue)
Assay type in all cases: cell-based
[1] = tested on: SNU423; conditions: Homo sapiens, SNU-423, 144 h; SNU423 liver cancer cell line; 6 days
Description: (§1) 1. Instruments and Materials • Thermo 311 CO2 incubator; Haier biosafety cabinet; Molecular Devices microplate reader; Xiangyi brand L530 desktop low speed centrifuge; Olympus IX51 inverted fluorescence microscope, DMEM, RPMI 1640, MEM, DMEM/F12 1:1 medium, Fetal bovine serum, 0.25% trypsin solution, phosphate buffer (Thermo Fisher Shanghai Co., Ltd.); sigma dimethyl sulfoxide (DMSO), resazurin; 54 commercial tumor cell lines (including 26 liver cancer cell lines). Experimental drugs: compounds 1-12 and active drug Linifanib; chemotherapeutic drug Doxorubicin (HY-15142; Shanghai Qianyuan Biomedical Technology Co., Ltd.).
(§2) 2. Experimental Methods • 2.1 Cultivation of different cell lines • 54 cell lines were cultured in a culture medium containing fetal bovine serum and placed in a 5% CO 2 incubator at 37° C. for incubation. The cells were all grown in an adherent state, and the growth was observed under an inverted microscope, and subculture was performed when the cell confluence rate reached 80%-90%. The proportion and quantity of passage were determined by experimental needs. The ratio of subculture of this cell line was generally 1:2^˜1:3. • 2.2 inhibition effect on the proliferation of different tumor cell lines • Cell test: 54 cell lines in logarithmic growth phase were inoculated in 96-well culture plates at 500^˜1×10^4/well (the optimal seeding density of each cell line was determined in pre-experiment), After incubating at 37° C. for 4 h in a 5% CO2 humidification incubator, added 10 μL of compounds 1-12 or Linifanib to each well, and tested 9 drug concentration gradients for each compound (diluted from the highest concentration of the test by 3.16 times). The solubility of each compound was different at a starting concentration of 30 or 100 μM, respectively. The QC reference compound Doxorubicin was added simultaneously to each cell line test, and the final drug concentrations were 10, 3.16, 1, 0.31, 0.1, 0.03, 0.01, 0.003, and 0.001 μM, respectively. In addition, a positive control group (100% inhibition) and a negative control group (0% inhibition) were set at the same time. The drug group was repeated for 2 wells per concentration, and the positive control group and the negative control group were repeated for 6 wells. After the culture was continued for 6 days in the incubator, AlamarBlue test operation was followed; • AlamarBlue test procedure: Incubated with 10 μL of AlamarBlue reagent per well for 1-4 h, shook for 1-2 min, MD microplate reader EX: 560 nm, EM: 590 nm wavelength to measure fluorescence, recorded the results, calculated the cell inhibition rate of the compound of the invention. Cell inhibition rate (%)=(A0% inhibition−A administration)/(A0% inhibition−A100% inhibition)×100%, and then using the method of nonlinear regression using Graph Pad Prism 5.0 or MATILAB software (usually using four parameters) to graph and obtain a drug dose response curve to obtain an IC50 value of the compound of the present invention acting on a cancer cell line.

[2] = tested on: SW620; conditions: Homo sapiens, SW-620, 144 h; SW620 tumor cell line; 6 days
Description: as §1, §2

[3] = tested on: HT55; conditions: Homo sapiens, 144 h; HT55 tumor cell line; 6 days
Description: as §1, §2

[4] = tested on: HUH7; conditions: Homo sapiens, Huh-7, 144 h; HUH7 liver cancer cell line; 6 days
Description: as §1, §2

[5] = tested on: TE-15; conditions: Homo sapiens, 144 h; TE-15 tumor cell line; 6 days
Description: as §1, §2

[6] = tested on: JHH1; conditions: 144 h; JHH1 liver cancer cell line; 6 days
Description: as §1, §2

[7] = tested on: DLD1; conditions: Homo sapiens, DLD-1, 144 h; DLD1 tumor cell line; 6 days
Description: as §1, §2

[8] = tested on: Alexander cells; conditions: 144 h, liver cancer cell line, 6 days
Description: as §1, §2

[9] = tested on: SNU761; conditions: 144 h; SNU761 liver cancer cell line; 6 days
Description: as §1, §2

[10] = tested on: MFM-223; conditions: Homo sapiens, 144 h; MFM-223 tumor cell line; 6 days
Description: as §1, §2

[11] = tested on: Li-7; conditions: 144 h; Li-7 liver cancer cell line; 6 days
Description: as §1, §2

[12] = tested on: SNU387; conditions: Homo sapiens, SNU-387, 144 h; SNU387 liver cancer cell line; 6 days
Description: as §1, §2

[13] = tested on: K562; conditions: Homo sapiens, 144 h; K562 tumor cell line; 6 days
Description: as §1, §2

[14] = tested on: KM12; conditions: Homo sapiens, 144 h; KM12 tumor cell line; 6 days
Description: as §1, §2

[15] = tested on: MG63; conditions: Homo sapiens, MG-63, 144 h; MG63 tumor cell line; 6 days
Description: as §1, §2

[16] = tested on: SNU739; conditions: SNU-739, 144 h; SNU739 liver cancer cell line; 6 days
Description: as §1, §2

[17] = tested on: KASUMI-1; conditions: KASUMI-1 (leukemia cells); for IC50: Homo sapiens, 144 h, 6 days
Description: as §1, §2

[18] = tested on: AN3CA; conditions: for IC50: Homo sapiens, AN3-CA, 144 h, AN3CA (endometrial cells), 6 days
Description: as §1, §2

[19] = tested on: HuTu80; conditions: Homo sapiens, 144 h; HuTu80 tumor cell line; 6 days
Description: as §1, §2

[20] = tested on: HCCLM3; conditions: Homo sapiens, 144 h; HCCLM3 tumor cell line; 6 days
Description: as §1, §2

[21] = tested on: NCl-H1703; conditions: for IC50: 144 h, NCl-H1703 (lung cancer cells), 6 days
Description: as §1, §2

[22] = tested on: JHH6; conditions: 144 h; JHH6 liver cancer cell line; 6 days
Description: as §1, §2

[23] = tested on: SNU182; conditions: Homo sapiens, SNU-182, 144 h; SNU182 liver cancer cell line; 6 days
Description: as §1, §2

[24] = tested on: NCl-H1648; conditions: 144 h; NCl-H1648 tumor cell line; 6 days
Description: as §1, §2

Cc1ccc(F)c(NC(=O)Nc2ccc(-c3cccc4c3c(N)nn4C(=O)CCCCCCCCCCCNC(=O)C[C@H](N)C(=O)N[C@@H](CCC(=O)O)C(=O)O)cc2)c1 [Compound 7]
IC50 [1]: > 100 µM | IC50 [2]: 21.9 µM | IC50 [3]: > 100 µM | IC50 [4]: 22.1 µM | IC50 [5]: 63.6 µM | IC50 [6]: > 100 µM | IC50 [7]: 97 µM | IC50 [8]: 98 µM | IC50 [9]: > 100 µM | IC50 [10]: 24.1 µM | IC50 [11]: 34.5 µM | IC50 [12]: > 100 µM | IC50 [13]: 23.9 µM | IC50 [14]: 7.72 µM | IC50 [15]: 73 µM | IC50 [16]: 37.4 µM | IC50 [17]: 96 nM | IC50 [18]: 2.94 µM | IC50 [19]: 21.1 µM | IC50 [20]: > 100 µM | IC50 [21]: 180 nM | IC50 [22]: 23.6 µM | IC50 [23]: > 100 µM | IC50 [24]: > 100 µM

Cc1ccc(F)c(NC(=O)Nc2ccc(-c3cccc4c3c(N)nn4C(=O)CCCCCCCCCCCNC(=O)C[C@H](N)C(=O)N[C@@H](CCC(=O)N[C@@H](CCC(=O)N[C@@H](CCC(=O)N[C@@H](CCC(=O)O)C(=O)O)C(=O)O)C(=O)O)C(=O)O)cc2)c1 [Compound 8]
IC50 [1]: 36.9 µM | IC50 [2]: 44.5 µM | IC50 [3]: > 100 µM | IC50 [4]: 23.6 µM | IC50 [5]: 42.7 µM | IC50 [6]: 35.4 µM | IC50 [7]: 51.1 µM | IC50 [8]: > 100 µM | IC50 [9]: 80.1 µM | IC50 [10]: 24 µM | IC50 [11]: 39.6 µM | IC50 [12]: 90.2 µM | IC50 [13]: > 100 µM | IC50 [14]: 12.4 µM | IC50 [15]: 37.2 µM | IC50 [16]: 64.9 µM | IC50 [17]: 100 nM | difference of IC50 value versus Linifanib [17]: 10 times | difference of IC50 value versus Linifanib ([18]; AN3-CA (endometrial cells)): 16.7 times | IC50 [18]: 3.14 µM | IC50 [19]: 43.8 µM | IC50 [20]: > 100 µM | IC50 [21]: 80 nM | difference of IC50 value versus Linifanib ([21]; NCI-H1703 (lung cancer cells)): 4 times | IC50 [22]: 41.7 µM | IC50 [23]: > 100 µM | IC50 [24]: > 100 µM

Cc1ccc(F)c(NC(=O)Nc2ccc(-c3cccc4c3c(N)nn4C(=O)CCCCCCCCCCCNC(=O)C[C@H](N)C(=O)N[C@@H](CCC(=O)N[C@@H](CCC(=O)N[C@@H](CCC(=O)N[C@@H](CCC(=O)N[C@@H](CCC(=O)N[C@@H](CCC(=O)N[C@@H](CCC(=O)N[C@@H](CCC(=O)N[C@@H](CCC(=O)O)C(=O)O)C(=O)O)C(=O)O)C(=O)O)C(=O)O)C(=O)O)C(=O)O)C(=O)O)C(=O)O)cc2)c1 [Compound 9]
IC50 [1]: > 100 µM | IC50 [2]: 66.7 µM | IC50 [3]: > 100 µM | IC50 [4]: 30.3 µM | IC50 [5]: 88.9 µM | IC50 [6]: > 100 µM | IC50 [7]: > 100 µM | IC50 [8]: > 100 µM | IC50 [9]: > 100 µM | IC50 [10]: 38.3 µM | IC50 [11]: 49.3 µM | IC50 [12]: > 100 µM | IC50 [13]: > 100 µM | IC50 [14]: 21.8 µM | IC50 [15]: > 100 µM | IC50 [16]: > 100 µM | IC50 [17]: 230 nM | IC50 [18]: 8.42 µM | IC50 [19]: 73.5 µM | IC50 [20]: > 100 µM | IC50 [21]: 330 nM | IC50 [22]: 65.3 µM | IC50 [23]: > 100 µM | IC50 [24]: > 100 µM

Cc1ccc(F)c(NC(=O)Nc2ccc(-c3cccc4c3c(N)nn4C(=O)C[C@H](N)C(=O)O)cc2)c1 [Compound 10]
IC50 [1]: 8.62 µM | IC50 [2]: 3.46 µM | IC50 [3]: 14.9 µM | IC50 [4]: 2.89 µM | IC50 [5]: 6.31 µM | IC50 [6]: 7.43 µM | IC50 [7]: 7.53 µM | IC50 [8]: 5.31 µM | IC50 [9]: 9.04 µM | IC50 [10]: 5.63 µM | IC50 [11]: 4.38 µM | IC50 [12]: 10.5 µM | IC50 [13]: 3.04 µM | IC50 [14]: 1.47 µM | IC50 [15]: 4.37 µM | IC50 [16]: 3.87 µM | IC50 [17]: 42 nM | IC50 [18]: 0.24 µM | IC50 [19]: 2.63 µM | IC50 [20]: 8.97 µM | IC50 [21]: 21 nM | IC50 [22]: 2.46 µM | IC50 [23]: 13.3 µM | IC50 [24]: 6.06 µM

From patent US11351151B2, “Compound having anticancer activity and preparation method and application” (3D Medicines (Beijing) Co., Ltd., priority 2016, dated 2022)
